Earlier results as cited in patent US20120295320A1, “APPARATUS AND METHOD FOR TREATMENT OF MICROORGANISMS DURING PROPAGATION, CONDITIONING AND FERMENTATION USING STABILIZED CHLORINE DIOXIDE/SODIUM CHLORITE WITH HOPS ACID EXTRACTS” (RESONANT BIOSCIENCES, LLC, priority 2010, published 2012).

Tested on: Weisella confusa
Conditions: background statement, fermentation mixture

Virginiamycin
concentration required to inhibit growth of Weisella confusa: over 25 mg/L
